Source: publication PMC4531110 (Chemical biology & drug design, 2015)
“Also recorded” adds a separate entry of the source. Where two headings read alike, the source gives them in different places.

Key:
influenza RNA promoter [1] = type: binding, influenza A virus; details: for line broadening of the imino protons of U27: 1D 1H NMR; for binding to the RNA promoter (1D 1H NMR, imino protons of U26, G13): 30 or 50 μM RNA promoter; for Kd: pH 6
in vitro = details: dog
[2] = tested on: A/WSN/33 influenza virus (WSN-Ren luciferase virus) in MDCK-HA cells; details: for IC50/CC50: ratio of WSN-Ren IC50 to ATPlite CC50
[3] = ATPlite assay for cytotoxicity assessment; details: dog, MDCK cells (results text: MDCK-HA cells)
WSN-Ren luciferase virus = assay: Viral replication assay by RT-PCR, WSN nucleoprotein mRNA level in MDCK-HA cells; type: cell-based, influenza A virus; details: 50 μM, standardized against beta-actin, vs DMSO
[4] = tested on: A/WSN/33 influenza virus (WSN-Ren luciferase virus) in MDCK-HA cells; details: cell-based viral replication (luciferase) assay; cited from earlier work
influenza RNA promoter [5] = details: from peak intensity of imino protons of U26, G13 and G24; cited from earlier work
MDCK cells [6] = details: cited from earlier work
[7] = tested on: wild-type influenza virus (A/Puerto Rico/8/1935); type: cell-based
MDCK cells [8] = tested on: MDCK cells

| Structure (SMILES) | line broadening of the imino protons of U27 (influenza RNA promoter [1]) | binding to the RNA promoter (1D 1H NMR, imino protons of U26, G13) (influenza RNA promoter [1]) | CC50 at 24 h (in vitro) [µM] | Kd (influenza RNA promoter [1]) [µM] | IC50/CC50 [2] | other results |
| --- | --- | --- | --- | --- | --- | --- |
| COc1cc2nc(N3CCN(S(C)(=O)=O)CC3)nc(N)c2cc1OC [Compound 5, 6,7-dimethoxy-2-(4-(methylsulfonyl)piperazin-1-yl)quinazolin-4-amine] | caused line broadening of the imino protons of U27 | bound to the influenza RNA promoter; also recorded: compound binding to RNA promoter | > 250 | – | – | – |
| COc1cc2nc(N3CCN(C(=O)CCO)CC3)nc(N)c2cc1OC [Compound 9, 1-(4-(4-amino-6,7-dimethoxyquinazolin-2-yl)piperazin-1-yl)-3-hydroxypropan-1-one] | caused line broadening of the imino protons of U27 | bound to the influenza RNA promoter; also recorded: compound binding to RNA promoter | > 250 | – | – | – |
| COc1cc2nc(N3CCN(C(=O)CNC(=O)CNC(=O)CN)CC3)nc(N)c2cc1OC [Compound 3, 2-amino-N-(2-((2-(4-(4-amino-6,7-dimethoxyquinazolin-2-yl)piperazin-1-yl)-2-oxoethyl)amino)-2-oxoethyl)acetamide] | caused line broadening of the imino protons of U27 | bound to the influenza RNA promoter; also recorded: compound binding to the RNA promoter | > 250 | 132 | – | – |
| COc1cc2nc(N3CCN(C(=O)C(C)C)CC3)nc(N)c2cc1OC [Compound 7, 1-(4-(4-amino-6,7-dimethoxyquinazolin-2-yl)piperazin-1-yl)-2-methylpropan-1-one] | caused line broadening of the imino protons of U27 | compound binding to RNA promoter | > 250 | 158 | <0.14 | IC50 [2]: 33.9 ± 23.2 µM |
| COc1cc2nc(N3CCN(C(=O)C(C)OC)CC3)nc(N)c2cc1OC (centres unmarked) [Compound 11, 1-(4-(4-amino-6,7-dimethoxyquinazolin-2-yl)piperazin-1-yl)-2-methoxypropan-1-one] | caused line broadening of the imino protons of U27 | bound to the influenza RNA promoter; also recorded: compound binding to RNA promoter | > 250 | – | – | – |
| CCCC(=O)N1CCN(c2nc(N)c3cc(OC)c(OC)cc3n2)CC1 [Compound 8, 1-(4-(4-amino-6,7-dimethoxyquinazolin-2-yl)piperazin-1-yl)butan-1-one] | – | compound binding to RNA promoter | > 250 | 44.4 | <0.18 | IC50 [2]: 44.2 ± 11.3 µM |
| COc1cc2nc(N3CCN(C(=O)CCCCN)CC3)nc(N)c2cc1OC [Compound 4, 5-amino-1-(4-(4-amino-6,7-dimethoxyquinazolin-2-yl)piperazin-1-yl)pentan-1-one] | caused line broadening of the imino protons of U27 | bound to the influenza RNA promoter; also recorded: compound binding to the RNA promoter | > 250 | – | – | – |
| COc1cc2nc(N3CCN(C(=O)c4cccs4)CC3)nc(N)c2cc1OC [Compound 15, (4-(4-amino-6,7-dimethoxyquinazolin-2-yl)piperazin-1-yl)(thiophen-2-yl)methanone] | – | compound binding to RNA promoter | 67 | 221 | 0.25 | – |
| COc1cc2nc(N3CCN(C(=O)C4CCCO4)CC3)nc(N)c2cc1OC (centres unmarked) [Compound 13, (4-(4-amino-6,7-dimethoxyquinazolin-2-yl)piperazin-1-yl)(tetrahydrofuran-2-yl)methanone] | – | – | – | – | – | CC50 at 24 h [3]: > 250 µM |
| COc1cc2nc(N3CCNCC3)nc(N)c2cc1OC [Compound 1, 6,7-dimethoxy-2-(1-piperazinyl)-4-quinazolinamine] | caused line broadening of the imino protons of U27 | – | – | 61.5 | <0.55 | inhibition of viral nucleoprotein mRNA production (WSN-Ren luciferase virus): not effective; IC50 [4]: 549 µM; Kd (influenza RNA promoter [5]): 50.5 ± 9 µM; CC50 (MDCK cells [6]): > 1 mM |
| CCOC(=O)C1=C[C@@H](OC(CC)CC)[C@H](NC(C)=O)[C@@H](N)C1 [Oseltamivir phosphate, oseltamivir phosphate, reference compound] | – | – | – | – | – | inhibition of A/PR8 nucleoprotein mRNA level [7]: showed inhibitory effects |
| COc1cc2nc(N3CCN(C(=O)C45CC6CC(CC(C6)C4)C5)CC3)nc(N)c2cc1OC [Compound 12, (1r,3R,5S)-adamantan-1-yl(4-(4-amino-6,7-dimethoxyquinazolin-2-yl)piperazin-1-yl)methanone] | – | bound to the influenza RNA promoter; also recorded: compound binding to RNA promoter | – | – | >15.24 | IC50 [2]: > 250 µM; CC50 (MDCK cells [8]): 16.4 µM |
| COc1cc2nc(N3CCN(C(=O)c4ccco4)CC3)nc(N)c2cc1OC [Compound 14, (4-(4-amino-6,7-dimethoxyquinazolin-2-yl)piperazin-1-yl)(furan-2-yl)methanone] | caused line broadening of the imino protons of U27 | compound binding to RNA promoter | – | – | 0.36 | CC50 at 24 h [3]: 78.2 µM |
| CCC(=O)N1CCN(c2nc(N)c3cc(OC)c(OC)cc3n2)CC1 [Compound 6, 1-(4-(4-amino-6,7-dimethoxyquinazolin-2-yl)piperazin-1-yl)propan-1-one] | – | compound binding to RNA promoter | > 250 | 114 | <0.16 | – |
| COc1cc2nc(N3CCN(C(=O)C4CC4)CC3)nc(N)c2cc1OC [Compound 10, (4-(4-amino-6,7-dimethoxyquinazolin-2-yl)piperazin-1-yl)(cyclopropyl)methanone] | – | compound binding to RNA promoter | > 250 | 127 | <0.14 | inhibition of A/PR8 nucleoprotein mRNA level [7]: significant dose-dependent inhibitory activity; also recorded: showed inhibitory effects; IC50 [2]: 34.2 ± 17.2 µM |
| COc1cc2nc(N3CCN(C(=O)c4ccccc4)CC3)nc(N)c2cc1OC [Compound 16, (4-(4-amino-6,7-dimethoxyquinazolin-2-yl)piperazin-1-yl)(phenyl)methanone] | – | compound binding to RNA promoter | > 250 | 321 | <0.43 | – |
